Assays:
A375 cells (B-raf V600E) = assay: Cell survival in A375 melanoma cells (Cell Counting Kit-8); type: cell-based, human; settings: Homo sapiens, A-375, 72 hours
Experimental: Human melanoma cell line, A375 (2×10^6 cells), which contains the V600E mutation in the B-raf protein that confers constitutive […] kinase activity, was obtained from American Type Culture Collection. A375 cells (20,000 cells/well) were cultured in 96-well plates and maintained at 37° C. for several hours. The cells were incubated at 37° C. for 72 hours with various concentrations of compound 226, 17AAG or 17DMAG. 17AAG and 17DMAG are Hsp90 inhibitors that are currently in clinical trials and are used here as positive controls for Hsp90 inhibition. Cell survival was measured with Cell Counting Kit-8 (Dojindo Laboratories, Cat # CK04).

P815 cells (c-Kit D814Y) = assay: Cell survival in mouse mastacytoma cell line P815 (Cell Counting Kit-8); type: cell-based; settings: 72 hours
Experimental: Mouse mastacytoma cell line P815 was obtained from the American Type Culture Collection (ATCC; Manassas, Va., USA). […] P815 cells (20,000 cells/well) were cultured in 96-well plates and maintained at 37° C. for several hours. […] 17AAG and 17DMAG are Hsp90 inhibitors that are currently in clinical trials and are used here as positive controls for Hsp90 inhibition. […] Cell survival was measured with Cell Counting Kit-8 (Dojindo Laboratories, Cat # CK04).

K562 cells (Bcr-Abl) = assay: Cell survival in K562 cells (Cell Counting Kit-8); type: cell-based, human; settings: Homo sapiens, 72 hours
Experimental: Growth of this tumor cell line is dependent upon the expression of the Bcr-Abl fusion protein (C. Gambacarti-Passerini et al., Blood Cells Mol. Dis. 23:380-394, 1997). K562 cells (20,000 cells/well) were cultured in 96-well plates and maintained at 37° C. for several hours. […] 17AAG, DMAG, and Radicical are Hsp90 inhibitors that are currently in clinical trials and are used here as positive controls for Hsp90 inhibition. […] Cell survival was measured with Cell Counting Kit-8 (Dojindo Laboratories, Cat # CK04).

phosphorylated Bcr-Abl = assay: Degradation of Bcr-Abl in KU812 cells (Western blot); type: cell-based; settings: 18 hours
Experimental: KU812 chronic myeloid leukemia cells (ATCC) (2×10^6 cells), which harbor the Philadelphia chromosome that produces Bcr-Abl tyrosine kinase, were treated (0.1 μM and 1.0 μM) with either Compound 226, 17-AAG or 17-DMAG. After 18 hours, the cells were lysed with 1× lysis buffer, and a western blot was perform using anti-BCR-ABL antibody to detect phosphorylated Bcr-Abl.

[1] = tested on: human tumor cell line Kasumi-1; assay: Kasumi-1 (c-Kit N822K) SCID mouse xenograft model; type: in vivo, human (xenograft in SCID mouse); settings: for % T/C value: SCID mice
Excerpt: The human acute myelogenous leukemia cell line, Kasumi-1 (ATCC #CRL-2724), was obtained from the American Type Culture Collection (ATCC; Manassas, Va., USA). Growth of this tumor cell line is dependent upon the expression of an activated form of the c-Kit tyrosine kinase receptor carrying a N822K mutation (A. Beghini, et al., Exp. Hematol. 33:682-688, 2005). […] FBS was obtained from ATCC and all other reagents were obtained from Invitrogen Corp. (Carlsbad, Calif., USA). Cells that had been cryopreserved in liquid nitrogen were rapidly thawed at 37° C. and transferred to a tissue culture flask containing growth media and then incubated at 37° C. in a 5% CO2 incubator. To expand the cell line, cultures were passaged 1:2 to a density of 5×10 (6) cells/ml every three days by adding an equal volume of fresh growth media. When the flasks reached a density of approximately 10×10 (6) cells/ml, the above passaging process was repeated until sufficient cells had been obtained for implantation into mice.
Seven to eight week old, female CB17/Icr-Prkdc^scid/Crl (SCID) mice were obtained from Charles River Laboratories (Wilmington, Mass., USA). […]
Tumors were then permitted to develop in vivo until the majority reached 100-200 mm^3 in tumor volume, which typically required 4-5 weeks following implantation. […] Tumor volumes (V) were calculated by caliper measurement of the width (W), length (L) and thickness (T) of tumors using the following formula: V=0.5236×(L×W×T). Animals were randomized into treatment groups so that the median tumor volumes of each group were similar at the start of dosing. % T/C values, as a measure of efficacy, were determined as follows: • (vi) If ΔT>0: % T/C=(ΔT/ΔC)×100 • (vii) If ΔT<0: % T/C=(ΔT/T0)×100 • (viii) ΔT=Change in median tumor volume between start of dosing and the end of study. • (ix) ΔC=Change in median tumor volume between start of dosing and the end of study. • (x) T0=Median tumor volume at start of dosing. […]

V600E mutant B-raf = assay: Degradation of B-raf in A375 melanoma cells (Western blot); type: cell-based, human; settings: 18 hours, at 0.5 mM and 0.1 mM (so in the source)
Experimental: […] After 18 hours, the cells were lysed with 1× lysis buffer and a western blot was perform, and B-raf was detected with anti-B-raf antibody.

CC(C)c1cc(-c2nnc(O)n2-c2ccc3c(ccn3C)c2)c(O)cc1O [Compound 226, 3-(2,4-di-hydroxy-5-isopropyl-phenyl)-4-(1-methyl-indol-5-yl)-5-hydroxy-[1,2,4] triazole]
IC50 (A375 cells (B-raf V600E)): 4 nM
IC50 for cell survival (comparison) (P815 cells (c-Kit D814Y)): lower IC50 for cell survival than 17AAG, 17DMAG or Gleevec
IC50 (K562 cells (Bcr-Abl)): 14 nM
degradation of phosphorylated Bcr-Abl (phosphorylated Bcr-Abl; 0.1 μM): complete degradation
degradation of phosphorylated Bcr-Abl (phosphorylated Bcr-Abl; 1.0 μM): complete degradation
average bodyweight gain relative to the start of the study ([1]; 25 mg/kg i.v. 5 times per week, day 50): +0.7% (+/−2.0 SEM)
% T/C value ([1]; 25 mg/kg i.v. 5 times per week, 14 doses, day 50): −15.3%
% T/C value ([1]; single dose of 25 mg/kg on day 30, observed day 33 (3 days after the first dose)): −4.1%
degradation of V600E mutant B-raf (V600E mutant B-raf): induced degradation
